Experimental data as given in patent US20210381022A1, “INTEGRATED DRUG DISCOVERY PLATFORM FOR INBORN ERROR OF METABOLISM DISORDERS” (RAMOT AT TEL-AVIV UNIVERSITY LTD., priority 2018, published 2021).
Entries after “also recorded” stand apart in the source; their conditions may differ.

How the values were obtained:
[1] = test system: aro4Δ mutant; assay: Yeast growth assay of aro4Δ mutant with phenylalanine; assay type: cell-based, Saccharomyces cerevisiae; settings: SD medium with phenylalanine
Description: The focus was put on a strain with a deletion of the ARO4 gene. The inventors aimed to determine whether the toxic effect is influenced by phenylalanine feeding. Thus, the cellular growth of wild-type and the aro4Δ mutant was examined by serial dilutions on selective plates that were supplemented with phenylalanine. In addition, cellular growth was also examined by measuring the turbidity of the medium upon addition of phenylalanine (FIG. 26A, 26B).

[2] = test system: RB857 (PAH-1 mutant) and N2 (WT) worms; assay: C. elegans model for PKU; assay type: in vivo, Caenorhabditis elegans
Description: (§1) Wild-type N2, RB857 and NL2099 worms were obtained from the Caenorhabditis Genetics Center. RNAi clones was obtained from the Ahringer RNAi library as previously described [Fisher A L, et al., J. Biol. Chem. 283: 9127-9135(2008)]. Worms were grown on NGM media without peptone and the metabolites were added into a boiling media. Baicalein and EGCG were added to a media after cooled down to 45 degrees.
To study PKU in C. elegans model, a strain was used with mutation in the PAH-1 gene (RB857)]. […] Next, the effect of one of the previously identified hits i.e. baicalein was examined on the development of worms. The life cycle of C. elegans is comprised of the embryonic stage, four larval stages (L1-L4) and adulthood. The end of each larval stage is marked with a molt, during which a new, stage-specific cuticle is synthesized and the old one is shed.

[3] = test system: wild-type strain; assay: Yeast growth assay of wild-type strain; assay type: cell-based, Saccharomyces cerevisiae; settings: tyrosine in media, EGCG added
Description: (§2) Strains were grown over night at 30° C. in SD medium without adenine. For spotting assays, strains were diluted to 6.25*10^7 cells/mL and were then 5-fold serially diluted and spotted on SD media with the indicated concentrations of adenine or TA (Sigma-Aldrich). Plates were incubated at 30° C. for 2 days. […] For OD600 measurements, strains were diluted to OD600 0.01, 200 μL of cells were platted on 96 wells plates and incubated at 30° C. for 25 hours with continuous shaking. OD600 was measured using Tecan™ SPARK 10M plate reader.

[4] = test system: tyrosine aggregates in aro3Δ mutant cells; assay: Flow cytometry with ProteoStat staining of aro3Δ mutant; assay type: cell-based, Saccharomyces cerevisiae; settings: tyrosine 0.02 mM, EGCG 5 mM
Description: An amount of 1 mL of logarithmic cells were washed with PBS buffer and sonicated using 15 s pulses at 20% power. For each sample, 2*10^6 cells were resuspended with ProteoStat dye (Enzo Life Sciences) diluted 1:3000 in ProteoStat assay buffer. Cells were incubated for 15 min at room temperature protected from light. Flow cytometry was preformed using Stratedigm S1000EXi and the CellCapTure software (Stratedigm, San Jose, Calif.). Live cells were gated (P1) by forward scatter and side scatter. Fluorescence channels for FITC (530/30) and PE-Cy5 (676/29) were used utilizing a 488 nm laser source. A total of 50,000 events were acquired for each sample. Analyses were performed using FlowJo software (TreeStar, version 10).
In order to examine whether the inhibition in cell growth in a non-linear cooperative manner upon tyrosine feeding (FIG. 23A, 23B) is associated with in vivo formation of amyloid-like assemblies, cells were stained with ProteoStat®, a well-established amyloid-specific fluorescent dye that was previously shown to detect the presence of intracellular protein amyloid-like aggregates in living bacterial cells with high specificity, even when the target proteins are expressed at low levels.
In order to examine the effect of EGCG on cell growth, the aro3Δ mutant was spotted on 4a.a SD plates that contained tyrosine alone or tyrosine with different concentrations of EGCG. […]

[5] = test system: aro3Δ mutant; assay: Yeast growth assay of aro3Δ mutant with tyrosine feeding; assay type: cell-based, Saccharomyces cerevisiae
Description: as §2
The focus was put on a strain with a deletion of the ARO3 gene in which a significant decrease in cellular growth was observed upon tyrosine feeding (see FIG. 21). The inventors aimed to determine whether the toxic effect was influenced by different levels of tyrosine. Thus, the cellular growth of wild-type and the aro3Δ mutant was examined by serial dilutions on selective plates that were supplemented with different concentrations of tyrosine (FIG. 21A). In addition, cellular growth was also examined by measuring the turbidity of the medium upon addition of the indicated concentration of tyrosine (FIG. 21B). […] Thus, cell growth is affected by tyrosine levels in a dose-dependent manner which further supports the notion that the toxicity in the aro3Δ mutant results from the presence of tyrosine.
In order to examine the effect of EGCG on cell growth, the aro3Δ mutant was spotted on 4a.a SD plates that contained tyrosine alone or tyrosine with different concentrations of EGCG. […] Thus, the lag phase in the presence of EGCG was nearly the same as cells unexposed to tyrosine, indicating the potent ability of EGCG to eliminate the tyrosine sensitivity of the aro3Δ mutant. […] Next, the inventors aimed to gain additional insights into the effect of EGCG on the amyloid-like fibrils formed by the accumulation of tyrosine in the aro3Δ mutant cells. For that purpose, cells were stained with the amyloid-specific dye ProteoStat®, and FACS was applied to detect tyrosine aggregates. […] (FIG. 25).

[6] = test system: fah-1 RNAi treated worms; assay: C. elegans model for Tyrosinemia (fah-1 RNAi); assay type: in vivo, Caenorhabditis elegans; settings: fah-1 RNAi, tyrosine added, EGCG added
Description: as §1
Mutations in different enzymes that are involved in the tyrosine degradation pathway are responsible for different types of Tyrosinemia. The tyrosine degradation pathway in mammals and C. elegans in conserved and the most severe is type I Tyrosinemia, which is caused by mutations affecting the last enzyme in the pathway, fumarylacetoacetate hydrolase (FAH). To study Tyrosinemia in C. elegans model, an RNAi was used that specifically silences the fumarylacetoacetate hydrolase (fah-1), as was previously reported (K10C4.2). RNAi directed against fah-1 causes severe phenotype of reduced size, impaired fertility and reduction of total number of viable worms (FIG. 32).

[7] = test system: phenylalanine assemblies; settings: reference [4]; cited from earlier work
[8] = test system: gcv1Δ cells; settings: SD media with glycine
[9] = test system: adenosine aggregates in ADA deficient LCLs; assay: Aggregation assay (Proteostat, FACS) on ADA deficient LCLs; assay type: cell-based, human; settings: for formation of adenosine aggregates (aggregation level, Proteostat staining): patient derived lymphoblastoids, 19 concentrations from 50 μM to 0.003 μM
Description: 24 hours after seeding in full medium cells were washed with medium without serum and placed in medium without serum. Following 72 hours of incubation with or without Adenosine (A9251 SIGMA) (200 ug/ml), cells were washed with PBS and stained for adenosine aggregates with Proteostat dye (ENZ-51023-KP002). Proteostat concentration was 1:3000 of diluted stock. Following 15 minutes' incubation, cells were washed with PBS and mean fluorescence was measured with FACS.
Cells were treated with adenosine alone or with adenosine with compounds. Compound activity was tested in 19 concentrations in range from 50 uM to 0.003 uM.
Readouts: Proteostat Fluorescence intensity was measured with FACS at 2 excitation wavelengths: 488 nm and 550 nm. Emission wavelength was 600 nm.
24 hours after seeding in 96 round bottom plates in full medium cells were washed once with medium without serum and placed in medium without serum. Following 72 hours of incubation with or without Adenosine (200 ug/ml) and with or without purpurin (2 uM), cells were washed once with PBS and stained for adenosine aggregates with Proteostat dye (Enzo Life Sciences). Proteostat concentration was 1:4000 of diluted stock. Following 15 minutes incubation, cells were washed with PBS and mean flow cytometry was preformed using Stratedigm S1000EXi and the CellCapTure software (Stratedigm, San Jose, Calif.). Analyses were performed using FlowJo software (TreeStar, version 10).
For quantification of intracellular adenosine aggregates by FACS analyses, 100,000 cells were seeded in 96 well plates in full medium. After 24 hours, cells were centrifuged, washed once and added with serum free medium with or without Adenosine (200 μg/ml). After incubation of 72 hours cells were washed with PBS and stained for adenosine aggregates with Proteostat dye. Following 15 minutes incubation, cells were washed with PBS and mean fluorescence was measured with FACS. Mean cell fluorescence of every cell line was normalized to its signal without adenosine and data is presented as percentage of aggregates.

[10] = test system: ADA deficient LCLs; assay: LCLs survival assay (XTT), ADA deficient LCLs; assay type: cell-based, human; settings: 2 μM Purpurin, with adenosine, 72 hours, vs control LCLs
Description: 24 hours after seeding in 96 round bottom plates in full medium cells were washed once with medium without serum and placed in medium without serum. Following 72 hours of incubation with or without Adenosine (200 ug/ml) and with or without purpurin (2 uM), XTT based cell viability assay was performed. Absorbance was measured with Tecan™ SPARK 10M plate reader.
In order to assess the toxic effect of adenosine aggregates, XTT based cell viability assays were performed on healthy and ADA deficient LCLs. Cells went through similar procedure as described above except adenosine was at 300 μg/ml. Survival percentage was calculated as absorbance with adenosine divided by absorbance without adenosine. […] Moreover. 4 out of 5 ADA deficient cell lines display less than 20% survival (FIG. 15B cell lines 7,8,9,11,12).

[11] = test system: adenine fibrils; assay: ThT assay of adenine self-assembly inhibition in vitro; settings: adenine 8 mg/ml in PBS with inhibitor
Description: Adenine was dissolved at 90° C. in PBS to a final concentration of 8 mg/ml and mixed with the indicated inhibitor, at the indicated concentrations, or with PBS as a control, followed by addition of ThT in PBS. ThT emission data at 480 nm (excitation at 450 nm) were measured at the end point.
Adenine was dissolved to a final concentration of 8 mg/ml at 90° C. in PBS. The solution was plated on a 96-well black plate and mixed with the inhibitor baicalein at the stated concentration, and with 20 μm ThT (final concentration). Fluorescence (excitation at 450 nm, emission at 480 nm) was recorded over time using a Tecan™ Infinite® 200 PRO plate reader. Data processing was performed using the OriginLab software.
To further examine if the compounds specifically target the adenosine amyloid-like structures. the compounds were tested using adenine in-vitro aggregation assay. Adenine was self-assembled with and without the inhibitors and stained with the amyloids dye, Thioflavin T (ThT). […] More specifically. Adenosine (30 mg/mL) and guanosine (3 mg/ml) were dissolved in PBS at 90° C., followed by the addition of ThT at final concentration of 20 μM. ThT emission data at 480 nm (excitation at 450 nm) was measured over time. TEM images show elongated adenosine fibrils (10 mg/mL) and guanosine fibrils (1 mg/mL) (FIGS. 34A and 34B, respectively). ThT fluorescence assay of adenosine and guanosine assemblies, are shown by FIGS. 34C, and 34D respectively.

[12] = test system: mutant yeast strain; assay: IC50 assay in yeast, rescue from adenine toxicity (HTS growth format); assay type: cell-based; settings: Saccharomyces cerevisiae, 22 h, read-out: IC50, rescuing mutant yeast strain from adenine toxicity
Description: Yeast strains were grown over night at 30° C. in SD medium without adenine and were diluted to OD600 0.005. 80 μL of cells were platted on 384 wells plates and incubated at 30° C. for 22 hours with continuous shaking. OD600 was measured using Tecan™ SPARK 10M plate reader.
Yeast strains were diluted to OD600 0.005. 80 μL of cells were platted on 384 wells plates. Compounds were added with Tecan™ D300 printer at relevant concentrations and plates were incubated at 30° C. for 22 hours with continuous shaking. OD600 was measured using Tecan™ SPARK 10M plate reader. IC50 calculations were performed with CDD software.
The high-throughput screening was calibrated for 384 plate format using phenotypic assay based on yeast growth rate (measured by OD). The goal was to find hit compounds that will dramatically improve the growth rate as compared to the salvage mutant in the presence of adenine. All relevant controls were used including: mutant yeast grown without adenine addition, WT yeast, and mutant yeast in the presence of adenine with Prazosin as a positive control compound. Potential hits were selected after calculations of growth curve slopes and area under the curve during the logarithmic phase. After hit validation and dose response experiments, hits displaying low IC50 rates were selected implying on a good potential for some of the compounds (FIG. 14).

N[C@@H](Cc1ccccc1)C(=O)O [phenylalanine]
growth of aro4Δ mutant with phenylalanine in the medium [1]: growth inhibition
RB857 worms that didn't reach adulthood by day 10 ([2]; 100 mM Phenylalanine): more than 90%
worms reaching adulthood on day 4 ([2]; RB857, 100 mM phenylalanine in minimal media): none of the worms reached adulthood on day 4
number of worms ([2]; RB857, phenylalanine added): significantly reduced the number of worms

O=C(O[C@@H]1Cc2c(O)cc(O)cc2O[C@@H]1c1cc(O)c(O)c(O)c1)c1cc(O)c(O)c(O)c1 [EGCG, epigallocatechin gallate]
growth of wild-type cells [3]: no significant changes
tyrosine aggregates percentage (ProteoStat, FACS) [4]: dramatic reduction in the tyrosine aggregates percentage
growth of aro3Δ mutant ([5]; 4a.a SD with 0.03 mM tyrosine, different concentrations of EGCG): significant improvement in growth in a dose-dependent manner
lag phase of cell growth kinetics ([5]; tyrosine in media, EGCG treated vs untreated cells): notably shorter
fertility of worms [6]: enhance the fertility of worms; also recorded: partially restore
total number of viable worms [6]: elevation of the total number of worms; also recorded: partially restore
phenylalanine aggregation and cytotoxicity of the assemblies in vitro [7]: counteract

NCC(=O)O [glycine]
growth with glycine in the growth medium [8]: dose-dependent growth inhibition

O=C1c2ccccc2C(=O)c2c(O)c(O)cc(O)c21 [Purpurin, 1,2,4-trihydroxyanthracene-9,10-dione]
Proteostat staining of adenosine aggregates ([9]; 2 μM Purpurin, adenosine 200 μg/ml, 72 hours): reduced to significantly lower levels
formation of adenosine aggregates (aggregation level, Proteostat staining) [9]: significantly reduce the aggregation level
formation of adenosine aggregates (aggregation level, Proteostat staining) ([9]; listed as purpurin): inhibited the formation of these aggregates
cell viability (XTT) [10]: substantial improvement in cell viability
amyloids staining (ThT, end point) [11]: significantly reduced the amyloids staining
IC50 [12]: 14.4 nM
